In ChEMBL document CHEMBL1201862, “PubChem BioAssay data set” (2004):
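These data come from cells grown in 96-well plates and exposed to compound for 48 hours at five concentrations. GI50: concentration for 50% inhibition of growth.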 The source made the active and inactive calls. Cut-off read from the data, not from the text of the source: active = GI50 up to about 1.1 µM and inactive = higher.

Legend:
Experiment in all cases: NCI-60 cell line screen, 48 h
A498 = test system: A498
A549 = test system: A549
BT-549 = test system: BT-549
CCRF-CEM = test system: CCRF-CEM
DU-145 = test system: DU-145
HL-60 = test system: HL-60
HOP-62 = test system: HOP-62
IGROV-1 = test system: IGROV-1
K562 = test system: K562
NCI-H226 = test system: NCI-H226
NCI-H23 = test system: NCI-H23
PC-3 = test system: PC-3
RPMI-8226 = test system: RPMI-8226
SF-268 = test system: SF-268
SF-295 = test system: SF-295
SK-MEL-28 = test system: SK-MEL-28
SW-620 = test system: SW-620
TK-10 = test system: TK-10
NCI-H522 = test system: NCI-H522

Measured: GI50

CC(=O)NC(C)(C)C1CCC(C)CC1 (stereo unspecified)
inactive: A498 > 100 µM | A549 > 100 µM | BT-549 > 100 µM | CCRF-CEM > 100 µM | DU-145 > 100 µM | HL-60 > 100 µM | HOP-62 > 100 µM | IGROV-1 > 100 µM | K562 > 100 µM | NCI-H226 > 100 µM | NCI-H23 > 100 µM | PC-3 > 100 µM | RPMI-8226 > 100 µM | SF-268 > 100 µM | SF-295 > 100 µM | SK-MEL-28 > 100 µM | SW-620 > 100 µM | TK-10 > 100 µM

O=C1OCC(O)=C1C(c1ccc(Cl)cc1)c1cc2c(cc1O)OCO2 (stereo unspecified)
inactive: A498 > 100 µM | A549 > 100 µM | BT-549 > 100 µM | CCRF-CEM > 100 µM | DU-145 > 100 µM | HL-60 > 100 µM | HOP-62 > 100 µM | IGROV-1 > 100 µM | K562 > 100 µM | NCI-H226 > 100 µM | PC-3 > 100 µM | SF-268 > 100 µM | SK-MEL-28 > 100 µM | SW-620 > 100 µM | TK-10 > 100 µM

Cc1nc2ccc(Cl)cc2c(Cl)c1CCCl
inactive: A498 83 µM | A549 40.9 µM | CCRF-CEM 15.1 µM | DU-145 43.7 µM | HL-60 46.6 µM | HOP-62 42.4 µM | IGROV-1 72.6 µM | K562 9.86 µM | NCI-H226 43.6 µM | NCI-H23 60.4 µM | NCI-H522 39.3 µM | PC-3 80.7 µM | RPMI-8226 35.2 µM | SF-268 > 100 µM | SF-295 48.2 µM | SK-MEL-28 > 100 µM | SW-620 40.2 µM | TK-10 > 100 µM

O=C(O)c1ccc(S(=O)(=O)c2ccccc2)c([N+](=O)[O-])c1
inactive: A498 > 100 µM | A549 > 100 µM | CCRF-CEM > 100 µM | HL-60 > 100 µM | HOP-62 > 100 µM | IGROV-1 > 100 µM | K562 > 100 µM | NCI-H226 > 100 µM | NCI-H23 > 100 µM | NCI-H522 > 100 µM | RPMI-8226 > 100 µM | SF-268 > 100 µM | SF-295 > 100 µM | SK-MEL-28 > 100 µM | SW-620 > 100 µM | TK-10 > 100 µM

CCOC(=O)C1=C(Nc2ccc(Br)cc2)OC/C1=N\NC(=O)c1ccccc1O
inactive: A498 > 47.3 µM | A549 4.06 µM | CCRF-CEM 9.66 µM | HL-60 20.4 µM | HOP-62 11.2 µM | IGROV-1 6.46 µM | K562 7.06 µM | NCI-H226 38.9 µM | NCI-H23 6.52 µM | NCI-H522 7.98 µM | RPMI-8226 15 µM | SF-268 12 µM | SF-295 14.2 µM | SK-MEL-28 > 81.3 µM | SW-620 23 µM | TK-10 > 34.8 µM

Cc1ccc(S(=O)(=O)NC(=O)Nc2cc(Cl)c(S(N)(=O)=O)cc2S(N)(=O)=O)cc1
inactive: A549 > 100 µM | BT-549 > 100 µM | CCRF-CEM > 100 µM | DU-145 > 100 µM | HL-60 > 100 µM | HOP-62 > 100 µM | IGROV-1 > 100 µM | K562 > 100 µM | NCI-H226 > 100 µM | NCI-H23 > 100 µM | NCI-H522 > 100 µM | RPMI-8226 > 100 µM | SF-268 > 100 µM | SF-295 > 100 µM | SK-MEL-28 > 100 µM | SW-620 > 100 µM | TK-10 > 100 µM

CC(C)NC(C)Cc1ccccc1 (stereo unspecified)
inactive: A498 > 100 µM | A549 > 100 µM | CCRF-CEM > 100 µM | HL-60 > 100 µM | HOP-62 > 100 µM | IGROV-1 > 100 µM | K562 > 100 µM | NCI-H226 > 100 µM | NCI-H23 > 100 µM | NCI-H522 > 100 µM | RPMI-8226 > 100 µM | SF-268 > 100 µM | SF-295 > 100 µM | SK-MEL-28 > 100 µM | SW-620 > 100 µM | TK-10 > 100 µM
